Data taken from patent US20180353755A1, “EPIDURAL STIMULATION FOR FACILITATION OF LOCOMOTION, POSTURE, VOLUNTARY MOVEMENT, AND RECOVERY OF AUTONOMIC, SEXUAL, VASOMOTOR, AND COGNITIVE FUNCTION AFTER NEUROLOGICAL INJURY” (NeuroRecovery Technologies, Inc., priority 2014, published 2018).

Test system: rat with complete mid-thoracic spinal cord transection
Experiment: Locomotor behavior of rats one week after complete mid-thoracic spinal cord transection, drug therapy with or without epidural stimulation (FIG. 1)
Type: in vivo
Conditions: one week post-injury; for Locomotor behavior, epidural stimulation in combination with a single drug: epidural stimulation simultaneously at L2 plus S1; for Locomotor behavior after administration of drug: no epidural stimulation
Procedure: FIG. 1 summarizes recent experiments in rats that were carried out to assess the effectiveness of epidural stimulation coupled with combined drug therapy in the treatment of complete spinal cord injuries. The combination of quipazine and 8-OHDPAT with simultaneous epidural stimulation at spinal sites L2 and S1 results in robust coordinated stepping as early as one week after a complete spinal cord transection. Locomotor behavior observed from a typical rat before the injury and one week after a complete mid-thoracic spinal cord transection. The amount of body weight support provided to the rat is shown in red. One week post-injury, no spontaneous stepping activity is observed. […] Sol, soleus; TA, tibialis anterior;MTP, metatarsal-phalangeal.
FIG. 1 summarizes experiments in rats that were carried out to assess the effectiveness of epidural stimulation coupled with combined drug therapy in acute treatment of complete spinal cord injury.

Compound	Locomotor behavior, epidural stimulation in combination with a single drug	Locomotor behavior after administration of drug
CCCN(CCC)C1CCc2cccc(O)c2C1 (stereo not shown) [8-OHDPAT]	enables plantar stepping	erratic movements
c1ccc2nc(N3CCNCC3)ccc2c1 [Quipazine]	enables plantar stepping	erratic movements
